SMILES strings stand for the structures. pKi: −log10 of the molar value.

Our source for the Ki values is patent US11147812B2, “Tyrosine analogues derivatives as Rho-kinase inhibitors” (Chiesi Farmaceutici S.p.A., priority 2017, dated 2021).

The target in one experiment is Rho kinase 1 (ROCK1) (Homo sapiens, UniProt Q13464). Briefly: In vitro Rho kinase inhibitory activity assay (ADP-Glo), ROCK1. It counts as biochemical. As to conditions: 10 μM ATP, 25° C., Ki by Cheng-Prusoff. How it is done:
(§1) The effectiveness of compounds of the present invention to inhibit Rho kinase activity can be determined in a 10 μl assay containing 40 mM Tris pH7.5, 20 mM MgCl2 0.1 mg/ml BSA, 50 μM DTT and 2.5 μM peptide substrate (Myelin Basic Protein) using an ADP-Glo kit (Promega). Compounds were dissolved in DMSO such that the final concentration of DMSO was 1% in the assay. All reactions/incubations are performed at 25° C. Compound (2 ul) and either Rho kinase 1 or 2 (4 μl) were mixed and incubated for 30 mins. Reactions were initiated by addition of ATP (4 μl) such that the final concentration of ATP in the assay was 10 μM. After a 1 hour incubation 10 μl of ADP-Glo Reagent was added and after a further 45 minute incubation 20 ul of Kinase Detection Buffer was added and the mixture incubated for a further 30 minutes. The luminescent signal was measured on a luminometer. […] Compounds were tested in dose-response format and the inhibition of kinase activity was calculated at each concentration of compound. To determine the IC50 (concentration of compound required to inhibit 50% of the enzyme activity) data were fit to a plot of % inhibition vs Log10 compound concentration using a sigmoidal fit with a variable slope and fixing the maximum to 100% and the minimum to 0%. To determine the Ki values the Cheng-Prusoff equation was utilized (Ki=IC50/(1+[S]/Km)
A general note: In ADP-Glo the light output rises with the ADP produced.

For the next experiment, the target named is Rho kinase 2 (ROCK2) (Homo sapiens, UniProt O75116). Briefly: In vitro Rho kinase inhibitory activity assay (ADP-Glo), ROCK2. As to conditions: 10 μM ATP, 25° C., Ki by Cheng-Prusoff. The format is biochemical. How it is done: as §1
Sequence of Rho kinase 2 (ROCK2) (O75116 whole entry): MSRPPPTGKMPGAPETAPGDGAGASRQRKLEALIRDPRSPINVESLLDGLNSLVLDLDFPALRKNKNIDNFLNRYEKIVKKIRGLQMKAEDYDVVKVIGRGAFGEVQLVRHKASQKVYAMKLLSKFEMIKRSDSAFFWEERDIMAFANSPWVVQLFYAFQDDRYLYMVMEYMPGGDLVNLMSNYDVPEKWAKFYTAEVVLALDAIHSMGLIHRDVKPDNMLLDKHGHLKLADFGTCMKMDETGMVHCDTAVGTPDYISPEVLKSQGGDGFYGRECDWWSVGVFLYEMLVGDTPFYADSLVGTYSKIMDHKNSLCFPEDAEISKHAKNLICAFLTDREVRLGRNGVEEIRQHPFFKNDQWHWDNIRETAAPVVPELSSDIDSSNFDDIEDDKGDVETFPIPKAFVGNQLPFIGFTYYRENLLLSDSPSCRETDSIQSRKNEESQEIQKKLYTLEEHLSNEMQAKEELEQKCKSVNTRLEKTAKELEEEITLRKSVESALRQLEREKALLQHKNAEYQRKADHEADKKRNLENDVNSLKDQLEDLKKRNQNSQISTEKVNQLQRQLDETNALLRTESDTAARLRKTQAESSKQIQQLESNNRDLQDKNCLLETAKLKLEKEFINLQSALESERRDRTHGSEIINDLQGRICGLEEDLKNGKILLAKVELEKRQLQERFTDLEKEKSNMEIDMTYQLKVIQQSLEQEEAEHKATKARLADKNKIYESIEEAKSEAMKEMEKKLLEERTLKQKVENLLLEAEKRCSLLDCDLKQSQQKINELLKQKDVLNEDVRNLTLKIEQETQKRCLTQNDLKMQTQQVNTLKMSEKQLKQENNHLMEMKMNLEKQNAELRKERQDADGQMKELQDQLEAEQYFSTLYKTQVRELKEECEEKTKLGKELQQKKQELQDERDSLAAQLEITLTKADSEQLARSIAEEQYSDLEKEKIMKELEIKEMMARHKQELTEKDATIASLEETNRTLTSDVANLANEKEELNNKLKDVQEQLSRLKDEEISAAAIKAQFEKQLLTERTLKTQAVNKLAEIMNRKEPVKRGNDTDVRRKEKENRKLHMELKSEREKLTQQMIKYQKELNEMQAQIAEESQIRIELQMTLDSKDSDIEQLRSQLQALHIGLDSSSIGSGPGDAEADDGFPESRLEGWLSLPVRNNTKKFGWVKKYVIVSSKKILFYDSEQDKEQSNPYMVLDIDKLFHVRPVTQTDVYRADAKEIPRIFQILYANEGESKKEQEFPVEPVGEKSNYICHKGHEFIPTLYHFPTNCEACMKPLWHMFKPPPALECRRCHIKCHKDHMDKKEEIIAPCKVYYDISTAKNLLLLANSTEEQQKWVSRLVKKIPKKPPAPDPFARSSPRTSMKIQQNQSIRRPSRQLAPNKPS

Sequence of Rho kinase 1 (ROCK1) (Q13464 whole entry): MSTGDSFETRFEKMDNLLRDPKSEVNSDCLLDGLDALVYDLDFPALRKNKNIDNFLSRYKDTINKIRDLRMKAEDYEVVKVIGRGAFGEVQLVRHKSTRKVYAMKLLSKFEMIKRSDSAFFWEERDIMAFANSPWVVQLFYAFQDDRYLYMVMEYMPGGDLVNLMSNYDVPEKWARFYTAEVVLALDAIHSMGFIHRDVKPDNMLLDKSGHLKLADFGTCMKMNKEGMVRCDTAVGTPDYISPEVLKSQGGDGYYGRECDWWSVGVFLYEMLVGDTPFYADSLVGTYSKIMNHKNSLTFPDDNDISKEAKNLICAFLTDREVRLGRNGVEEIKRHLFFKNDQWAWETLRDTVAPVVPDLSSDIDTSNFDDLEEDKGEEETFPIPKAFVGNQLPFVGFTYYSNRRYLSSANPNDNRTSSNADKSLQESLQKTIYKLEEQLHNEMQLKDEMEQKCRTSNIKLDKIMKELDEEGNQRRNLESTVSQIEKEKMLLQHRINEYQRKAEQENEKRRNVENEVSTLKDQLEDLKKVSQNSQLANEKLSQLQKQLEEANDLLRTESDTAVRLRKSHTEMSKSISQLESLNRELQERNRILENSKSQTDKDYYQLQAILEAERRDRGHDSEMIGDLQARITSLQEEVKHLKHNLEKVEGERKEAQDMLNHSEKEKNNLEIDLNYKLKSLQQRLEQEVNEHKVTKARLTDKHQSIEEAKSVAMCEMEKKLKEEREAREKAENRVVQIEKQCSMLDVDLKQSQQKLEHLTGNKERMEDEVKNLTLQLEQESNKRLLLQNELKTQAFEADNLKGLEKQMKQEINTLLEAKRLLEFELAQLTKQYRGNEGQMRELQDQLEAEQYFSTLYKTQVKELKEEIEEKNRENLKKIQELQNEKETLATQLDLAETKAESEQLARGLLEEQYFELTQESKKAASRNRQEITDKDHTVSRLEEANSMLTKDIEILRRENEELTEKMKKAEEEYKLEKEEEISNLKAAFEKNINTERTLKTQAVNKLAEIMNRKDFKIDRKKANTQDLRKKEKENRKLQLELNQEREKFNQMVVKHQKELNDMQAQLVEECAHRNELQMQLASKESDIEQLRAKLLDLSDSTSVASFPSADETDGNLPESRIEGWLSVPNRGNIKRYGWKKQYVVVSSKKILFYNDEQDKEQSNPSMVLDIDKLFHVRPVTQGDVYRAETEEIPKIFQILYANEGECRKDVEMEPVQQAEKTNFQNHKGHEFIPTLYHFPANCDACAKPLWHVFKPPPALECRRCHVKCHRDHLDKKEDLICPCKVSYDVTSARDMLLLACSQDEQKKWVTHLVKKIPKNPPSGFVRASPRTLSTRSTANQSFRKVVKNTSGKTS

For `NC(C(=O)NC1CCCCC1)c1ccc(Oc2ccnc3[nH]ccc23)cc1` (stereo not drawn) [Example 8, 2-(4-((1H-pyrrolo[2,3-b]pyridin-4-yl)oxy)phenyl)-2-amino-N-cyclohexylacetamide], the negative-log Ki (pKi) at Rho kinase 1 (ROCK1) and at Rho kinase 2 (ROCK2) was less than 7.52 in each case.
Consider `Cc1c[nH]c2nccc(Oc3ccc([C@H]4CNC[C@@H]4C(=O)NCc4ccccc4)cc3)c12` (racemic) [Example 17, rac-(3R,4S)-N-benzyl-4-(4-((3-methyl-1H-pyrrolo[2,3-b]pyridin-4-yl)oxy)phenyl)pyrrolidine-3-carboxamide], for which the pKi at Rho kinase 1 (ROCK1) and on Rho kinase 2 (ROCK2) was greater than 8.52 each time.
For `Cc1c[nH]c2nccc(Oc3ccc([C@H]4CCN[C@@H]4C(=O)NCCCN(C)C)cc3)c12` (racemic) [Example 26, rac-(2R,3S)-N-(3-(dimethylamino)propyl)-3-(4-((3-methyl-1H-pyrrolo[2,3-b]pyridin-4-yl)oxy)phenyl)pyrrolidine-2-carboxamide], the pKi on Rho kinase 1 (ROCK1) and at Rho kinase 2 (ROCK2) was 7.52 to 8.52 in each case.
In the case of `COCCCNC(=O)[C@H]1NCC[C@@H]1c1ccc(Oc2ccnc3[nH]cc(C)c23)cc1` (racemic) [Example 21, rac-(2S,3R)-N-(3-methoxypropyl)-3-(4-((3-methyl-1H-pyrrolo[2,3-b]pyridin-4-yl)oxy)phenyl)pyrrolidine-2-carboxamide], the results for the pKi at Rho kinase 1 (ROCK1) and at Rho kinase 2 (ROCK2) were 7.52 to 8.52 and greater than 8.52, respectively.
As for `CN1CCC(NC(=O)C(N)c2ccc(Oc3ccnc4[nH]ccc34)cc2)CC1` (stereo not drawn) [Example 14, 2-(4-((1H-pyrrolo[2,3-b]pyridin-4-yl)oxy)phenyl)-2-amino-N-(1-methylpiperidin-4-yl)acetamide], the negative-log Ki (pKi) at Rho kinase 1 (ROCK1) and on Rho kinase 2 (ROCK2) was less than 7.52 each time.
Take `Cc1c[nH]c2nccc(Oc3ccc(CC(CN)C(=O)N4CCN(C)CC4)cc3)c12` (stereo not drawn) [Example 1, 3-amino-2-(4-((3-methyl-1H-pyrrolo[2,3-b]pyridin-4-yl)oxy)benzyl)-1-(4-methylpiperazin-1-yl)propan-1-one]: the pKi at Rho kinase 1 (ROCK1) and at Rho kinase 2 (ROCK2) was greater than 8.52 each time.
With `NCC(Cc1ccc(Oc2ccnc3[nH]ccc23)cc1)C(=O)N1CCN(Cc2ccccc2)CC1` (single isomer, unassigned) [Example 32B, 2-(4-((1H-pyrrolo[2,3-b]pyridin-4-yl)oxy)benzyl)-3-amino-1-(4-benzylpiperazin-1-yl)propan-1-one], the pKi on Rho kinase 1 (ROCK1) and at Rho kinase 2 (ROCK2) was greater than 8.52 each time.
For `Cc1c[nH]c2nccc(Oc3ccc(CC(CN)C(=O)N4C[C@@H]5C[C@H]4CN5C)cc3F)c12` (single isomer, unassigned) [Example 4A], the pKi at Rho kinase 1 (ROCK1) and at Rho kinase 2 (ROCK2) was 7.52 to 8.52 each time.
In the case of `Cc1c[nH]c2nccc(Oc3ccc([C@H]4CNC[C@@H]4C(=O)NCc4ccccc4)cc3)c12` (single isomer, unassigned) [Example 17A], the pKi at Rho kinase 1 (ROCK1) and at Rho kinase 2 (ROCK2) was greater than 8.52 each time.
In the case of `NCC(Cc1ccc(Oc2ccnc3[nH]ccc23)cc1)C(=O)N1CCN(Cc2ccccc2)CC1` (stereo not drawn) [Example 32, 2-(4-((1H-pyrrolo[2,3-b]pyridin-4-yl)oxy)benzyl)-3-amino-1-(4-benzylpiperazin-1-yl)propan-1-one], the pKi at Rho kinase 1 (ROCK1) and at Rho kinase 2 (ROCK2) was greater than 8.52 throughout.
`NCC(Cc1ccc(Oc2ccnc3[nH]ccc23)cc1)C(=O)N1CCN(Cc2ccccc2)CC1` (single isomer, unassigned) [Example 32A, 2-(4-((1H-pyrrolo[2,3-b]pyridin-4-yl)oxy)benzyl)-3-amino-1-(4-benzylpiperazin-1-yl)propan-1-one]: the pKi on Rho kinase 1 (ROCK1) and at Rho kinase 2 (ROCK2) was 7.52 to 8.52 throughout.
As for `Cc1c[nH]c2nccc(Oc3ccc(CC4CNCN(CCc5ccncc5)C4=O)cc3F)c12` (stereo not drawn) [Example 43, 5-(3-fluoro-4-((3-methyl-1H-pyrrolo[2,3-b]pyridin-4-yl)oxy)benzyl)-3-(2-(pyridin-4-yl)ethyl)tetrahydropyrimidin-4(1H)-one], the pKi at Rho kinase 1 (ROCK1) and at Rho kinase 2 (ROCK2) was less than 7.52 each time.
Regarding `CN1CCN(C(=O)C(N)c2ccc(Oc3ccnc4[nH]ccc34)cc2)CC1` (stereo not drawn) [Example 11, 2-(4-((1H-pyrrolo[2,3-b]pyridin-4-yl)oxy)phenyl)-2-amino-1-(4-methylpiperazin-1-yl)ethanone], the negative-log Ki (pKi) on Rho kinase 1 (ROCK1) and at Rho kinase 2 (ROCK2) was less than 7.52 in each case.
Take `COCCCN1CNCC(Cc2ccc(Oc3ccnc4[nH]cc(C)c34)c(F)c2)C1=O` (stereo not drawn) [Example 42, 5-(3-fluoro-4-((3-methyl-1H-pyrrolo[2,3-b]pyridin-4-yl)oxy)benzyl)-3-(3-methoxypropyl)tetrahydropyrimidin-4(1H)-one]: the pKi (as a rule, the Ki on a negative log10 scale, so that one unit is a factor of ten) on Rho kinase 1 (ROCK1) is less than 7.52; at Rho kinase 2 (ROCK2) it was 7.52 to 8.52.
With `Cc1c[nH]c2nccc(Oc3ccc(CC(CN)C(=O)N4C[C@@H]5C[C@H]4CN5C)cc3F)c12` (stereo partly drawn) [Example 4, 3-amino-2-(3-fluoro-4-((3-methyl-1H-pyrrolo[2,3-b]pyridin-4-yl)oxy)benzyl)-1-((1S,4S)-5-methyl-2,5-diazabicyclo[2.2.1]heptan-2-yl)propan-1-one], the pKi on Rho kinase 1 (ROCK1) and on Rho kinase 2 (ROCK2) was greater than 8.52 throughout.
In the case of `Cc1c[nH]c2nccc(Oc3ccc(CC(CN)C(=O)N4CCN(Cc5ccccn5)CC4)cc3F)c12` (single isomer, unassigned) [Example 5B, 3-amino-2-(3-fluoro-4-((3-methyl-1H-pyrrolo[2,3-b]pyridin-4-yl)oxy)benzyl)-1-(4-(pyridin-2-ylmethyl)piperazin-1-yl)propan-1-one], the pKi at Rho kinase 1 (ROCK1) and on Rho kinase 2 (ROCK2) was greater than 8.52 throughout.
Turning to `Cc1c[nH]c2nccc(Oc3ccc(CC(CN)C(=O)NC4CCN(C)CC4)cc3F)c12` (stereo not drawn) [Example 3, 3-amino-2-(3-fluoro-4-((3-methyl-1H-pyrrolo[2,3-b]pyridin-4-yl)oxy)benzyl)-N-(1-methylpiperidin-4-yl)propanamide], the pKi at Rho kinase 1 (ROCK1) and at Rho kinase 2 (ROCK2) was greater than 8.52 each time.
For `Cc1c[nH]c2nccc(Oc3ccc(C(N)CC(=O)N4CCN(Cc5ccccc5)CC4)cc3)c12` (single isomer, unassigned) [Example 7B, 3-amino-1-(4-benzylpiperazin-1-yl)-3-(4-((3-methyl-1H-pyrrolo[2,3-b]pyridin-4-yl)oxy)phenyl)propan-1-one], the pKi at Rho kinase 1 (ROCK1) and on Rho kinase 2 (ROCK2) was 7.52 to 8.52 throughout.
For the compound `Cc1c[nH]c2nccc(Oc3ccc([C@@H]4CCN[C@H]4C(=O)N4CCNCC4)cc3)c12` (racemic) [Example 27, rac-((2S,3R)-3-(4-((3-methyl-1H-pyrrolo[2,3-b]pyridin-4-yl)oxy)phenyl)pyrrolidin-2-yl)(piperazin-1-yl)methanone], the pKi on Rho kinase 1 (ROCK1) and at Rho kinase 2 (ROCK2) was 7.52 to 8.52 in each case.
On to `NC(C(=O)NC1CCOCC1)c1ccc(Oc2ccnc3[nH]ccc23)cc1` (stereo not drawn) [Example 13, 2-(4-((1H-pyrrolo[2,3-b]pyridin-4-yl)oxy)phenyl)-2-amino-N-(tetrahydro-2H-pyran-4-yl)acetamide], for which the pKi at Rho kinase 1 (ROCK1) and at Rho kinase 2 (ROCK2) was less than 7.52 in each case.
Turning to `Cc1c[nH]c2nccc(Oc3ccc([C@H]4CCN[C@@H]4C(=O)NC4CCN(C)CC4)cc3)c12` (racemic) [Example 25, rac-(2S,3R)-3-(4-((3-methyl-1H-pyrrolo[2,3-b]pyridin-4-yl)oxy)phenyl)-N-(1-methylpiperidin-4-yl)pyrrolidine-2-carboxamide], the negative logarithm of the Ki (pKi) at Rho kinase 1 (ROCK1) and at Rho kinase 2 (ROCK2) was 7.52 to 8.52 each time.
For `CN(C)C(=O)C(N)c1ccc(Oc2ccnc3[nH]ccc23)cc1` (stereo not drawn) [Example 12, 2-(4-((1H-pyrrolo[2,3-b]pyridin-4-yl)oxy)phenyl)-2-amino-N,N-dimethylacetamide], the pKi at Rho kinase 1 (ROCK1) and on Rho kinase 2 (ROCK2) was less than 7.52 in each case.
Regarding `Cc1c[nH]c2nccc(Oc3ccc(CC(CN)C(=O)NC4CCCCC4)cc3F)c12` (stereo not drawn) [Example 28, 3-amino-N-cyclohexyl-2-(3-fluoro-4-((3-methyl-1H-pyrrolo[2,3-b]pyridin-4-yl)oxy)benzyl)propanamide], the negative logarithm of the Ki (pKi) on Rho kinase 1 (ROCK1) and at Rho kinase 2 (ROCK2) was greater than 8.52 each time.
With `Cc1c[nH]c2nccc(Oc3ccc([C@H]4CNC[C@@H]4C(=O)N(C)Cc4ccccc4)cc3)c12` (racemic) [Example 18, rac-(3R,4S)-N-benzyl-N-methyl-4-(4-((3-methyl-1H-pyrrolo[2,3-b]pyridin-4-yl)oxy)phenyl)pyrrolidine-3-carboxamide], the pKi at Rho kinase 1 (ROCK1) is 7.52 to 8.52; at Rho kinase 2 (ROCK2), greater than 8.52.
